Assays:
[1] = tested on: basal cell carcinoma (BCC), squamous cell carcinoma (SCC) and melanoma tumors; test: In vivo fluorescence imaging of skin tumors after systemic (retro-orbital) injection of the probe; set-up: species or system mouse
Excerpt: Imaging agents based on the well-characterized COX-2 inhibitors can be used for the early detection of skin cancer and help define tumor margins. […] A continuing problem is the detection of small tumors that are indistinguishable over non-specific background fluorescence.
FIGS. 1A and 1B illustrate in vivo detection of Fluorocoxib accumulation in Basal Cell Carcinoma Imaging with CRi Maestro. FIG. 1A: Histology and identification of tumor cell; FIG. 1B: from lesion 3 (arrows).
However, for skin or other epithelial applications, as well as to improve on its TBR on systemic administration, it is desirable to limit the non-specific signal. To overcome this undesirable background fluorescent signal that can mask signals from smaller tumors and other sites having low-level expression of COX-2, the present disclosure provides molecular probes wherein the fluorescent COX-2-specific construct comprises a fluorescent quencher linked to the probe by a cleavable linker. Upon entry into a cell and binding of the Fluorocoxib to COX-2, the quencher can be displaced from the vicinity of the fluorophore by, for example, a cytoplasmic peptidase cleavage of the cleavable linker, allowing the generation of a detectable fluorescent signal. […]
The capability of this probe to detect early stage skin tumors that cannot be detected by visual inspection was investigated. […]

[2] = LC/MS-MS quantification in mouse blood after topical application; format: in vivo

level in mouse blood [2]: undetectable
Substance: 5-Rox-D-indomethacin [Fluorocoxib A]
size of small tumors visualized ([1]; genetically engineered mouse model of non-melanoma skin cancer, systemic administration, 1 mg/kg): approximately 100 μm | fluorescence detection in tumor areas ([1]; three hours after retro-orbital injection, in vivo imaging and tissue histology): selectively detected
